# Measured values: patent US20240058387A1, “CULTURE MEDIUM COMPOSITION FOR AMPLIFYING AND MAINTAINING SELF-RENEWAL CAPACITY AND DIFFERENTIATION POTENTIAL OF HSCS AND APPLICATION THEREOF” (EDIGENE (GUANGZHOU) INC., priority 2020, published 2024)
# How the values were obtained:
# Type in all cases: cell-based, human
# [1] = test system: umbilical cord blood-derived CD34+ cells; assay: Flow cytometry detection of HSC stemness markers (LT-HSCs CD34+CD45+CD90+CD45RA-CD38-) after small molecule induction
# Description: (§1) According to the solubility and required solvent indicated in the instructions of the small molecule inhibitor (see Table 1 for the Cat. number of the small molecule inhibitor), the preparation of the small molecule inhibitor stock solution was carried out. Next, the hematopoietic stem cell medium was prepared: SFEM II medium (stem cell, Cat. number: 09655)+50 ng/ml growth factor Flt-3L (PeProtech, Cat. number: 300-100UG)+50 ng/ml growth factor SCF (PeProtech, Cat. number): 300-07-100UG)+50 ng/ml growth factor TPO (PeProtech, Cat. number: 300-18-100UG)+10 ng/ml interleukin IL-6 (PeProtech, Cat. number: 200-06-20UG)+1% bispecific antibody (HyClone, Cat. No.: sv30010). According to the set concentration gradient of the small molecule inhibitor, the stock solution and the basal medium were used to prepare the medium containing different concentrations of the small molecule inhibitor.
# (§2) First, the prepared medium was added to a 24-well plate (Corning, Cat. number: 3473), 950 μl per well, and placing it in a carbon dioxide incubator (Thermo, model: 3111) to preheat; resuspending the spare umbilical cord Blood-derived HSCs of Example 1 with SFEM 11+50 ng/ml Flt-3L+50 ng/ml SCF+50 ng/ml TPO+10 ng/ml IL-6+1% bispecific antibody, calculating the medium volume to be added according to 50 μl cell suspension per well and 2*10^5/m1 cell density per well. For example, when the final volume of the cell culture solution per well was 1 ml, the total number of cells per well was 2*10^5 cells calculated according to the cell density per well, and the density of the […] of cell suspension supplemented to each well is 4*10^6/ml. The density of the spare HSCs of Example 1 was adjusted to the calculated density of the cell suspension, and adding it; taking out the preheated medium from the incubator, adding 50 μl of the cell suspension to each well, and after mixing, using the microscope (OLYMPUS, model: CKX53) to observe the cells state, and then putting it into an incubator for culturing.
# 20 μL of cells cultured for 6-8 days (D6-D8) in the above Example 2 was sampled for counting, taking out a suspension of 2*10^5 cells into a 1.5 ml centrifuge tube according to the counting result; centrifuging at 400 g for 5 min, discarding the supernatant. 100 μL of PBS (phosphate-buffered saline solution, HyClone, Cat. number: SH30256.01) containing 1% HSA (human serum albumin, Guangdong Shuanglin, Cat. number: S10970069) was taken, resuspending the cells, and vortexing to mix well for later use. Then, the cell sample in the control was collected. The number of cells and the collection method were the same as those of the sample cells to be tested. The controls were setting as the NC group and the ISO group respectively, selecting the cells from any sample or mixed cells of the samples to be tested in this batch of experiments, depending on the number of cells.
# According to Table 3 above, the antibodies were added to the cell suspensions of the above-mentioned cell samples to be tested and control cell samples according to groups; vortexing to mix and incubating at room temperature for 15 min in the dark. After 15-min incubation, 1 ml of PBS containing 1% HSA was added to each test sample, mixing well, centrifuging at 400 g for 5 min at room temperature. After centrifugation, the supernatant was discarded, and the cells were resuspended in 100 μL of PBS containing 1% HSA for each test sample. Samples were stored at room temperature away from light before testing. […]
# [2] = test system: mobilized peripheral blood-derived CD34+ cells; assay: Cell counting: absolute number of marker-positive cells, comparison with UM171 and SR1; conditions: FIG. 5B, 8 days
# Description: as §1, §2
# On the mobilized peripheral blood-derived CD34+ cells sorted in Example 1, the screened-out inhibitor AG1296 and literature-reported (Fares I, et al. Science. 2014; Boitano A E, et al. Science. 2010) inhibitors UM171 and SR1 were compared in the same way as Example 2. Eight days after the induction of the small molecule inhibitor, the expression of LT-HSCs cell surface markers (CD34+CD45+CD90+CD45RA−CD38−) was detected by flow cytometry using the same method as in Example 3. After 8 days of culture, 20 μL of cell suspension was taken into a cell counter (Nexcelom, model: Cellometer K2) and counted, and the absolute numbers of the final CD34+ cells and LT-HSCs on […] were calculated (absolute number of cells=total number of cells*stemness ratio).
# [3] = test system: umbilical cord blood-derived CD34+ cells; assay: Cell counting: total cell number and absolute number of marker-positive cells after small molecule induction; conditions: 6 days
# Description: as §1, §2
# On the umbilical cord blood-derived CD34+ cells sorted in Example 1, the optimal concentration of the screened-out inhibitor AG1296 was screened in the same way as in Example 2. After 6 days of induction with different concentrations of the small molecule inhibitor AG1296, the expression of LT-HSCs cell surface markers (CD34+CD45+CD90+CD45RA−CD38−) was detected by flow cytometry using the same method as in Example 3. 20 μL of cell suspension was taken to count in a cell counter (Nexcelom, model: Cellometer K2) on the 6th day of culture, calculating the absolute number of the final CD34+ cells and LT-HSCs on the 6th day (absolute number of cells=total number of cells*sternness ratio). The results were shown in FIGS. 3A-3B and FIGS. 4A-4B, respectively.
# [4] = FIG. 3B, 1 μM, 5 μM and 10 μM, vs Mock
structure (smiles),measurement,setting,value
COc1cc2ncc(-c3ccccc3)nc2cc1OC [AG1296],"expansion fold of the ratio of LT-HSCs (CD34+CD45+CD90+CD45RA-CD38-), test group/control group (Mock)","[1]; FIG. 2, 6-8 days induction, 3 concentrations per inhibitor",more than 3 times
same,"maintaining the CD3+, CD34+CD90+, CD34+CD90+CD45RA- cell ratios (proportion in total cells)","[1]; FIG. 3A, 1 μM, 5 μM and 10 μM, 6 days, vs Mock",superior to the Mock group
same,proportion of LT-HSC relative to AG1296 (500 nM),"[1]; FIG. 4A, 1 μM, 6 days",about 2 times
same,proportion of LT-HSC relative to Mock group and AG1296 (100 nM) group,"[1]; FIG. 4A, 1 μM, 6 days",about 3 times
same,"maintaining the ratio of CD34+, CD34+CD90+, and CD34+CD90+CD45RA- cells","[1]; FIG. 4A, 1 μM, 6 days, vs Mock, 100 nM and 500 nM",better than Mock group and at the concentrations of 100 nM and 500 nM
same,"absolute number of CD34+CD90+, and CD34+CD90+CD45RA- cells",[2]; 1 μM,showed superiority
same,effect on cell proliferation,[2]; 1 μM,could inhibit cell proliferation
same,absolute number of CD34+ cells,"[2]; AG1296 at 1 μM, UM171 concentration not given",not significantly better than other groups
same,total cell number,"[3]; FIG. 3B, 1 μM vs 5 μM and 10 μM",higher cell numbers than that at concentrations of 5 μM and 10 μM
same,absolute number of proliferating LT-HSCs,"[3]; FIG. 3B, 1 μM, 5 μM and 10 μM",better effect
same,effect on cell proliferation,"[3]; FIG. 3B, 1 μM, 5 μM and 10 μM",slightly inhibited cell proliferation
same,absolute number of CD34+CD90+CD45RA- cells,[3]; [4],significantly better than the Mock group
same,absolute numbers of CD34+ cells,[3]; [4],lower than that in the mock group
same,absolute number of proliferating LT-HSCs relative to other groups,"[3]; FIG. 4B, 1 μM",1-2 times
same,effect on cell proliferation,"[3]; FIG. 4B, 1 μM",slightly inhibited cell proliferation
same,absolute number of CD34+ cells,"[3]; FIG. 4B, 1 μM, vs Mock, 100 nM, 500 nM groups",not significantly better than other groups
same,"absolute number of CD34+CD90+, and CD34+CD90+CD45RA- cells","[3]; FIG. 4B, 1 μM, vs other groups",significantly better than other groups
